In the NIST ThermoML archive (doi:10.1016/j.jct.2013.12.029):
Numbers after ± are expanded uncertainties.

Settings: 101.33 kPa, Liquid, Vibrating tube method

Row | Compound | mass density (298.15 K) | mass density (293 K)
1 | c1ccsc1 [thiophene] | 1058.92 ± 1 kg/m3 | –
2 | CC(C)=O [acetone] | 785.32 ± 1 kg/m3 | –
3 | CCCC[N+]1(C)CCCCC1.O=S(=O)([N-]S(=O)(=O)C(F)(F)F)C(F)(F)F | 1379.2 ± 1.1 kg/m3 | –
4 | CCC[N+]1(C)CCCCC1.O=S(=O)([N-]S(=O)(=O)C(F)(F)F)C(F)(F)F | 1409.8 ± 1.1 kg/m3 | –
5 | CCCCCC[N+]1(C)CCCCC1.O=S(=O)([N-]S(=O)(=O)C(F)(F)F)C(F)(F)F | 1325.4 ± 1.1 kg/m3 | 1329.5 ± 1.1 kg/m3
6 | CCCO [propan-1-ol] | 799.52 ± 1 kg/m3 | –
7 | c1ccc2sccc2c1 [benzo[b]thiophene] | 1427 ± 1 kg/m3 | –
8 | CCCCCCC [heptane] | 679.54 ± 1 kg/m3 | –
